Reference: US5563130A, “Methods for inhibiting angiogenesis, proliferation of endothelial or tumor cells and tumor growth” (American Cyanamid Company, priority 1994, dated 1996)
Converted amounts (≈) assume the structure as drawn.

Legend:
A2780/DDP = test: Antiproliferative activity in human ovarian tumor cell line A2780/DDP; format: cell-based; conditions: Homo sapiens, A2780/DDP, read-out: A2780/DDP/DDP IC50, PROTOCOL 1 and PROTOCOL 2
Description: PROTOCOL 1, 2, and 3 are described in greater detail hereinbelow. In general, according to PROTOCOLS 1 and 2, the target ABAE and/or Human Tumor cells are exposed to the compound of Formula I for 48 hours. PROTOCOL 3 exposes ABAE cell to the compound for 4 days. A detailed description of the protocol is as follows:
Antiproliferative Activity in Human Tumor and Adult Bovine Aortic Endothelial (ABAE) Cell Lines
The antiproliferative activity of the compounds of Formula I of the present invention is evaluated in a panel comprised of human tumor cell lines and an adult bovine aortic endothelial cell line (ABAE). The human tumor cell lines are from:
All cell lines are maintained in log phase in RPMI 1640 media, supplemented with 5% fetal calf serum, penicillin/streptomycin and 2 mM L-glutamine. Cultures are renewed after 20 passages with cells from a fresh stock of batch-frozen early passage cells. Cell lines are routinely checked for mycoplasma contamination (Genprobe). In a laminar flow hood, cells (1-5×10^4) are plated into 96-well microtiter plates in a volume of 0.1 ml/well with a bulk microtiter dispenser (Denley). […] At this concentration, dimethylsulfoxide has no effect on cell growth. Compounds are added using a Tomtec dispenser which simultaneously dispenses from one 96-well plate, containing the drug dilutions, to the plates containing the cells. After two days of continuous drug exposure, 50% cold trichloroacetic acid (TCA) is added to 10% final concentration to fix the cells, and after 60 minutes at 4° C., the TCA is aspirated and the plates are washed 5 times with deionized water using a microtiter plate washer. The number of cells on the plate are quantitated using a protein dye-binding assay (Monks et al., 1991). A 0.4% solution of the dye, sulforhodamine B, in glacial acetic acid is added to the plates, and the plates are washed 5 times with 1% glacial acetic acid using the automatic plate washed. The bound stain is solubilized with 0.1 ml of 10 mM Tris base. The optical densities are read from an automatic spectrophotometric plate reader (Dynatech) directly to a main frame computer (VAX 8600).
Positive controls, that include standard chemotherapeutic drugs (i.e., adriamycin, cisplatin, etc.), are included in every experiment.
Background optical density measurements (complete media-cells, and complete media+drug-cells) are automatically subtracted from the appropriate control and test wells. Mean values and standard errors are determined from duplicate wells. A measure is also made of the optical density at time when the drugs are added. The number of cells after treatment (P), as % of control, is calculated for every concentration of drug, as follows: [formula] wherein: T is optical density measurement for treated cells after 48 hours;
C is optical density measurement for untreated cells after 48 hours;
Co is optical density measurement for cells at the time of drug addition.
IC50 of growth inhibition is calculated from the sets of P values using the RS-1 data package (BBN Software).
The antiproliferative activity of the compounds of Formula I is evaluated in a panel comprised of human tumor cell lines and an adult bovine aortic endothelial cell line (ABAE) as listed in PROTOCOL 1. This assay is a modification of PROTOCOL 1. The modifications include:
1) each concentration for each compound is tested in a single well;
2) compounds are tested at 20, 4, 0.8, 0.16 microgram/ml and additionally in some experiments at 100 and 0.32 microgram/ml;
3) samples are pipetted into a 96-well plate for each of the cell lines by a Beckman Biomek 1000 SL robot;
4) after fixing with TCA each well is washed with 0.35 ml distilled water twice, not five times;
5) after staining with sulforhodamine B each well is washed 3 times, not five times; […]

[1] = system: Adult Bovine Aortic Endothelial (ABAE) cell line; test: Antiproliferative activity in ABAE cells, PROTOCOL 1 (48 h, SRB); format: cell-based; conditions: Bos taurus
Description: PROTOCOL 1, 2, and 3 are described in greater detail hereinbelow. In general, according to PROTOCOLS 1 and 2, the target ABAE and/or Human Tumor cells are exposed to the compound of Formula I for 48 hours. PROTOCOL 3 exposes ABAE cell to the compound for 4 days. A detailed description of the protocol is as follows: Antiproliferative Activity in Human Tumor and Adult Bovine Aortic Endothelial (ABAE) Cell Lines The antiproliferative activity of the compounds of Formula I of the present invention is evaluated in a panel comprised of human tumor cell lines and an adult bovine aortic endothelial cell line (ABAE). […] The number of cells on the plate are quantitated using a protein dye-binding assay (Monks et al., 1991). […] The optical densities are read from an automatic spectrophotometric plate reader (Dynatech) directly to a main frame computer (VAX 8600). […] Mean values and standard errors are determined from duplicate wells. […] The number of cells after treatment (P), as % of control, is calculated for every concentration of drug, as follows: [formula] wherein: T is optical density measurement for treated cells after 48 hours; C is optical density measurement for untreated cells after 48 hours; Co is optical density measurement for cells at the time of drug addition. IC50 of growth inhibition is calculated from the sets of P values using the RS-1 data package (BBN Software). […]

**Q.** `CN(C)c1ccc(O)c2c1C[C@H]1C[C@H]3[C@H](N(C)C)C(O)=C(C(N)=O)C(=O)[C@@]3(O)C(O)=C1C2=O` [Minocycline, reference compound] was tested. Which IC50 (A2780/DDP) did it give?
**A.** Its IC50 is 6.1 mg/L (≈ 13.3 µM).

**Q.** And the IC50 [1]?
**A.** The IC50 was 6.8 mg/L (≈ 14.9 µM).
